Experimental data reported in publication PMC12445744, “Molecular docking to homology models of human and Trypanosoma brucei ERK8 that identified ortholog-specific inhibitors” (PLOS Neglected Tropical Diseases, 2025).
“And” between values parts separate entries of the source, which are not always exact repeats. Identical values can stand only once.

Biological target: T1, HsERK8 (Homo sapiens, UniProt Q8TD08)
T1 construct: plasmid pGEX2T expressing the full-length hERK8 coding region; made in house; host or cells: Escherichia coli Rosetta 2 (DE3)
T1 sequence (Q8TD08 1-544): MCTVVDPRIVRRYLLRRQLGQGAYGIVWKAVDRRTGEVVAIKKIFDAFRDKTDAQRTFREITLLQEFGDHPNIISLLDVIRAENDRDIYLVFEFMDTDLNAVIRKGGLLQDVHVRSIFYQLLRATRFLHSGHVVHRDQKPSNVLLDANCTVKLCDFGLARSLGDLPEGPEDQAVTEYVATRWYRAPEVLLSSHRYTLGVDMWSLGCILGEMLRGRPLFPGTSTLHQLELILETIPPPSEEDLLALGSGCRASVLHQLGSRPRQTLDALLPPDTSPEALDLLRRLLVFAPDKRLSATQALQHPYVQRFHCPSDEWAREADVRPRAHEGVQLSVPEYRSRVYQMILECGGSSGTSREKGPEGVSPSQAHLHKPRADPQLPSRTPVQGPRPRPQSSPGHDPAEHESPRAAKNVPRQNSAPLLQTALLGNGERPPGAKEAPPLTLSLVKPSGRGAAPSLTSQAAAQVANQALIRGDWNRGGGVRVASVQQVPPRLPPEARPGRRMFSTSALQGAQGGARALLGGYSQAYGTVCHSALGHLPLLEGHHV
Test: Luciferase-based kinase inhibition assay (ATP luminescence), GST-tagged HsERK8 with MBP substrate
Format: biochemical
Details: for raw luminescence, HsERK8: replicate wells; for raw luminescence, HsERK8 / Luminescence Raw (Kinase-Glo): listed as Sil; for Luminescence Raw (Kinase-Glo): HsERK8

Question: For `CCCc1nn(C)c2c(=O)[nH]c(-c3cc(S(=O)(=O)N4CCN(C)CC4)ccc3OCC)nc12` [Sildenafil], which “raw luminescence, HsERK8” value (0.00015 mM compound, sheet ADP_ATP_glo081724 (3)) is on record?
Answer: 2773.07 RLU and 2877.12 RLU and 2182.72 RLU

Question: What about the “raw luminescence, HsERK8” value (0.00015 mM compound, sheet Kinase_glo 08142024 (2)) of the same molecule?
Answer: 6784.32 RLU and 6634.26 RLU and 5826.91 RLU

Question: And the “raw luminescence, HsERK8” value (0.00015 mM compound, sheet Kinase_glo_080924_IFPS (2))?
Answer: 3800.03 RLU and 4341.28 RLU and 3728.16 RLU

Question: And the “raw luminescence, HsERK8” value (0.00061 mM compound, sheet ADP_ATP_glo081724 (3))?
Answer: 3277.47 RLU and 3338.54 RLU and 3085.21 RLU

Question: What about the “raw luminescence, HsERK8” value (0.00061 mM compound, sheet Kinase_glo 08142024 (2)) of the same molecule?
Answer: 5721.23 RLU and 5653.6 RLU and 3903.63 RLU

Question: And the “raw luminescence, HsERK8” value (0.00061 mM compound, sheet Kinase_glo_080924_IFPS (2))?
Answer: 1396.94 RLU and 1477.79 RLU and 1381.21 RLU

Question: What about the “raw luminescence, HsERK8” value (0.00244 mM compound, sheet ADP_ATP_glo081724 (3)) of the same molecule?
Answer: 3469.73 RLU and 3284.26 RLU and 2883.9 RLU

Question: And the “raw luminescence, HsERK8” value (0.00244 mM compound, sheet Kinase_glo 08142024 (2))?
Answer: 7264.08 RLU and 7348.62 RLU and 5611.33 RLU

Question: And the “raw luminescence, HsERK8” value (0.00244 mM compound, sheet Kinase_glo_080924_IFPS (2))?
Answer: 3130.75 RLU and 3411.49 RLU and 2899.43 RLU

Question: What about the “raw luminescence, HsERK8” value (0.00977 mM compound, sheet ADP_ATP_glo081724 (3)) of the same molecule?
Answer: 2892.95 RLU and 2795.69 RLU and 2354.62 RLU

Question: And the “raw luminescence, HsERK8” value (0.00977 mM compound, sheet Kinase_glo 08142024 (2))?
Answer: 7046.4 RLU and 7135.16 RLU and 5429.57 RLU

Question: And the “raw luminescence, HsERK8” value (0.00977 mM compound, sheet Kinase_glo_080924_IFPS (2))?
Answer: 3247.54 RLU and 3584.42 RLU and 3180.16 RLU

Question: What about the “raw luminescence, HsERK8” value (0.03906 mM compound, sheet ADP_ATP_glo081724 (3)) of the same molecule?
Answer: 3397.35 RLU and 3566.99 RLU and 3141.76 RLU

Question: And the “raw luminescence, HsERK8” value (0.03906 mM compound, sheet Kinase_glo 08142024 (2))?
Answer: 6515.91 RLU and 6714.58 RLU and 5167.5 RLU

Question: And the “raw luminescence, HsERK8” value (0.03906 mM compound, sheet Kinase_glo_080924_IFPS (2))?
Answer: 3400.26 RLU and 3463.14 RLU and 3305.93 RLU

Question: What about the IC50 (50 μM ATP, 30 min 30°C, triplicate, n/d = no detectible inhibition, read-out: HsERK8 IC50) of the same molecule?
Answer: 8 mM

Question: And the “raw luminescence, HsERK8” value (0.15625 mM compound, sheet ADP_ATP_glo081724 (3))?
Answer: 3281.99 RLU and 3150.8 RLU and 2531.05 RLU

Question: What about the “raw luminescence, HsERK8” value (0.15625 mM compound, sheet Kinase_glo 08142024 (2)) of the same molecule?
Answer: 6655.4 RLU and 6579.31 RLU and 5562.72 RLU

Question: And the “raw luminescence, HsERK8” value (0.15625 mM compound, sheet Kinase_glo_080924_IFPS (2))?
Answer: 3817.99 RLU and 4080.76 RLU and 3636.08 RLU

Question: And the “raw luminescence, HsERK8” value (0.62500 mM compound, sheet ADP_ATP_glo081724 (3))?
Answer: 3474.25 RLU and 3356.64 RLU and 2585.33 RLU

Question: What about the “raw luminescence, HsERK8” value (0.62500 mM compound, sheet Kinase_glo 08142024 (2)) of the same molecule?
Answer: 8487.8 RLU and 8306.04 RLU and 6687.1 RLU

Question: What about the “raw luminescence, HsERK8” value (0.62500 mM compound, sheet Kinase_glo_080924_IFPS (2)) of the same molecule?
Answer: 5547.32 RLU and 5693.3 RLU and 4916.23 RLU

Question: And the “raw luminescence, HsERK8” value (2.50000 mM compound, sheet ADP_ATP_glo081724 (3))?
Answer: 11748.2 RLU and 11610.3 RLU and 8563.49 RLU

Question: What about the “raw luminescence, HsERK8” value (2.50000 mM compound, sheet Kinase_glo 08142024 (2)) of the same molecule?
Answer: 29728.4 RLU and 30364.6 RLU and 22572.1 RLU

Question: And the “raw luminescence, HsERK8” value (2.50000 mM compound, sheet Kinase_glo_080924_IFPS (2))?
Answer: 13814.9 RLU and 12641.6 RLU and 13534.9 RLU

Question: What about the “raw luminescence, HsERK8” value (10.00000 mM compound, sheet ADP_ATP_glo081724 (3)) of the same molecule?
Answer: 18796.3 RLU and 18852.8 RLU and 18760.1 RLU

Question: And the “raw luminescence, HsERK8” value (10.00000 mM compound, sheet Kinase_glo 08142024 (2))?
Answer: 37233.5 RLU and 36922.8 RLU and 36986.2 RLU

Question: And the “raw luminescence, HsERK8” value (10.00000 mM compound, sheet Kinase_glo_080924_IFPS (2), signal = ATP left)?
Answer: 19808.3 RLU and 19442.1 RLU and 19894.1 RLU

Question: And the “Luminescence Raw (Kinase-Glo)” value (inhibitor 0.00976562 mM, sheet Sil_Pred3, read 3)?
Answer: 76824 and 76849.7 and 75718.2

Question: And the “Luminescence Raw (Kinase-Glo)” value (inhibitor 0.0195312 mM, sheet Sil_Pred3, read 3)?
Answer: 84913.3 and 83327.3 and 84201.1

Question: What about the “Luminescence Raw (Kinase-Glo)” value (inhibitor 0.0390625 mM, sheet Sil_Pred3, read 3) of the same molecule?
Answer: 86810.9 and 87656.6 and 88003.3

Question: What about the “Luminescence Raw (Kinase-Glo)” value (inhibitor 0.078125 mM, sheet Sil_Pred3, read 3) of the same molecule?
Answer: 83688.1 and 81764.7 and 82605.8

Question: What about the “Luminescence Raw (Kinase-Glo)” value (inhibitor 0.15625 mM, sheet Sil_Pred3, read 3) of the same molecule?
Answer: 84571.3 and 87872.1 and 86433.7

Question: And the “Luminescence Raw (Kinase-Glo)” value (inhibitor 0.3125 mM, sheet Sil_Pred3, read 3)?
Answer: 80438.8 and 81286.8 and 83022.8

Question: And the “Luminescence Raw (Kinase-Glo)” value (inhibitor 0.625 mM, sheet Sil_Pred3, read 3)?
Answer: 81408.6 and 81148.6 and 80450.5

Question: What about the “Luminescence Raw (Kinase-Glo)” value (inhibitor 0.00976562, sheet Sil_Pred1, read 1) of the same molecule?
Answer: 87353.2 and 86988.7 and 86809.9

Question: What about the “Luminescence Raw (Kinase-Glo)” value (inhibitor 0.00976562, sheet Sil_Pred2, read 2) of the same molecule?
Answer: 79598.9 and 79331.5 and 78826.8

Question: And the “Luminescence Raw (Kinase-Glo)” value (inhibitor 0.0195312, sheet Sil_Pred1, read 1)?
Answer: 97908.4 and 96150.4 and 96258.1

Question: And the “Luminescence Raw (Kinase-Glo)” value (inhibitor 0.0195312, sheet Sil_Pred2, read 2)?
Answer: 87627.4 and 86394.8 and 87122.7

Question: And the “Luminescence Raw (Kinase-Glo)” value (inhibitor 0.0390625, sheet Sil_Pred1, read 1)?
Answer: 100125 and 101023 and 101243

Question: And the “Luminescence Raw (Kinase-Glo)” value (inhibitor 0.0390625, sheet Sil_Pred2, read 2)?
Answer: 89720.6 and 90218.3 and 91030

Question: And the “Luminescence Raw (Kinase-Glo)” value (inhibitor 0.078125, sheet Sil_Pred1, read 1)?
Answer: 96870.1 and 94163.1 and 94380.9

Question: And the “Luminescence Raw (Kinase-Glo)” value (inhibitor 0.078125, sheet Sil_Pred2, read 2)?
Answer: 86171.5 and 85045.8 and 85399.3

Question: What about the “Luminescence Raw (Kinase-Glo)” value (inhibitor 0.15625, sheet Sil_Pred1, read 1) of the same molecule?
Answer: 97571.5 and 101844 and 101823

Question: And the “Luminescence Raw (Kinase-Glo)” value (inhibitor 0.15625, sheet Sil_Pred2, read 2)?
Answer: 87601.8 and 91464.9 and 91334.7

Question: What about the “Luminescence Raw (Kinase-Glo)” value (inhibitor 0.3125, sheet Sil_Pred1, read 1) of the same molecule?
Answer: 91875.5 and 94802.6 and 96700.5

Question: And the “Luminescence Raw (Kinase-Glo)” value (inhibitor 0.3125, sheet Sil_Pred2, read 2)?
Answer: 83203.8 and 85106.3 and 85450.5

Question: And the “Luminescence Raw (Kinase-Glo)” value (inhibitor 0.625 (mM per sheet Pred3), sheet Kinase-Glo802124_Sil_Pred1, read 1, triplicate wells)?
Answer: 95077.7 and 94021 and 92790.1

Question: What about the “Luminescence Raw (Kinase-Glo)” value (inhibitor 0.625, sheet Sil_Pred2, read 2) of the same molecule?
Answer: 85048.1 and 84027.1 and 84180.6
